From PMC7460216 (Marine Drugs, 2020)
Where two headings read alike, the source gives them in different places.

Legend:
[1] = cited from earlier work
Trypanosoma cruzi = experiment: Antiparasitic assay, Trypanosoma cruzi; type: cell-based; settings: for IC50: mean of duplicate assays, read-out: T. Cruzi IC50
Text: (§1) The set of compounds were screened against a panel of four parasitic protozoa: Trypanosoma brucei rhodesiense, Trypanosoma cruzi, Leishmania donovani and Plasmodium falciparum K1 dual drug-resistant strain.
(§2) Detailed protocols for these assays have been described elsewhere.

[2] = system: Plasmodium falciparum K1 dual drug-resistant strain; experiment: Antiparasitic assay, Plasmodium falciparum K1; type: cell-based; settings: for SI Pf, antiplasmodial selectivity index = L6 IC50/P f. IC50: L6 versus P. falciparum K1
Text: as §1, §2

[3] = system: Trypanosoma brucei rhodesiense; experiment: Antiparasitic assay, Trypanosoma brucei rhodesiense; type: cell-based; settings: for IC50: read-out: T. B. Rhod. IC50
Text: as §1, §2

Leishmania donovani = experiment: Antiparasitic assay, Leishmania donovani; type: cell-based; settings: for IC50: mean of duplicate assays, read-out: L. Don. IC50
Text: as §1, §2

L6 cytotoxicity assay = type: cell-based, rat; settings: rat, mean of duplicate assays
[4] = system: panel of human tumour cell lines (NCI 60 cell-line panel); experiment: cells; settings: for tumour cell mean growth: preliminary single dose (10 μM) testing
Text: Protocols of testing at the DTP, NCI have been described elsewhere.

[5] = system: L6 rat skeletal myoblast cell line; experiment: L6 cytotoxicity assay; type: cell-based
[6] = system: Plasmodium falciparum (Pf) D6 clone; set-up: method as in PMID 20337497; settings: cited from earlier work
Pf W2 clone = settings: cited from earlier work
Vero cell line = system: Vero cell line; set-up: method as in PMID 20337497; settings: cited from earlier work
[7] = system: non-malignant human keratinocyte cell line; set-up: method as in PMID 32054048; settings: read-out: human keratinocyte cell line IC50 (cytotoxicity); cited from earlier work
[8] = system: human colon tumour cell line HCT-116; settings: read-out: HCT-116 IC50 (cytotoxicity); cited from earlier work
[9] = Trypanosoma cruzi, read-out: T. Cruzi % inhibition
[10] = Plasmodium falciparum, K1, read-out: P. Falc. K1 % inhibition
[11] = Leishmania donovani, read-out: L. Don. % inhibition
[12] = Plasmodium falciparum, K1, read-out: P. Falc. K1 IC50
[13] = Trypanosoma brucei, RHODESIENSE, mean of duplicate assays
[14] = Trypanosoma brucei, RHODESIENSE

O=C1C=C2S[C@H]3C[C@]2(C=C1Br)C1=C(N3)C(=O)c2[nH]cc3c2C1=NCC3 [Compound 1, (+)-discorhabdin B]
cytotoxicity (in words, Figure 9) [1]: Cytotoxic | inhibition at 1.5 µM (Trypanosoma cruzi; [9]): 100% | inhibition at 1.5 µM [2, 10]: 100% | inhibition at 1.5 µM ([3]; Trypanosoma brucei, RHODESIENSE, read-out: T. B. Rhod. % inhibition): 99% | inhibition at 1.5 µM (Leishmania donovani; [11]): 57%

O=C1C2=C3C4=[N+](CCc5c[nH]c1c54)C1(O)CCC3(CCN2)CC1 [Compound 7, Discorhabdin C Hydrogenation Product]
IC50 (L6 cytotoxicity assay; L6 rat skeletal myoblast cells): 1700 nM | SI Pf, antiplasmodial selectivity index = L6 IC50/P f. IC50 [2]: 19 | IC50 ([2]; Plasmodium falciparum, K1, mean of duplicate assays, read-out: P. Falc. K1 IC50): 90 nM | tumour cell mean growth [4]: 99.57%

discorhabdin U [Compound 15]
T. Cruzi % inhibition (Trypanosoma cruzi; at 1.5 μM): 100% (1.5) | P. Falc. K1 % inhibition ([2]; at 1.5 μM): 100% (1.5) | T. B. Rhod. % inhibition ([3]; at 1.5 μM): 100% (1.5) | L. Don. % inhibition (Leishmania donovani; at 1.5 μM): 97% (1.5)

CSC1=CC(=O)C(Br)=C[C@]12C=CNC1=C2C2=NCCc3cn(C)c(c32)C1=O [Compound 16]
IC50 (L6 cytotoxicity assay): 6100 nM | SI Pf, antiplasmodial selectivity index = L6 IC50/P f. IC50 [2]: 3.6 | IC50 [2, 12]: 1700 nM

COc1cc([C@@H]2c3cc4c(cc3[C@H](O)[C@H]3COC(=O)[C@H]23)OCO4)cc(OC)c1OC [podophyllotoxin, reference compound]
IC50 (L6 cytotoxicity assay): 10 nM

CCCCCNC1[C@@H]2[N+]3=C4C5=C(NCC[C@@]51[C@@H](O)[C@@H](Br)C2(O)O)C(=O)c1[nH]cc(c14)CC3 (stereo partly shown) [Compound 6, Aminopentane Discorhabdin C Dihydrate Adduct]
IC50 (L6 cytotoxicity assay): 810 nM | SI Pf, antiplasmodial selectivity index = L6 IC50/P f. IC50 [2]: 3.2 | IC50 [2, 12]: 250 nM | tumour cell line cytotoxicity / antitumour activity (in words) ([4]; NCI human tumour cell line panel): inactive | tumour cell mean growth [4]: 100.67%

Cn1cnc(SC2[C@H]3C(=O)C=C4S[C@H]5C[C@]42C2=C(N5)C(=O)c4[nH]cc5c4C2=[N+]3CC5)c1C[C@H](N)C(=O)O (single isomer, unassigned; (+)) [Compound 12, (+)-discorhabdin H2]
IC50 (L6 cytotoxicity assay): 17000 nM | IC50 (Trypanosoma cruzi; Trypanosoma cruzi): 63000 nM | SI Pf, antiplasmodial selectivity index = L6 IC50/P f. IC50 [2]: 1.4 | IC50 [2, 12]: 12000 nM | IC50 [3, 13]: 2300 nM | IC50 (Leishmania donovani; Leishmania donovani): 94000 nM

CCCCCSC1=CC(=O)C(Br)=CC12CCNC1=C2C2=NCCc3c[nH]c(c32)C1=O (stereo not shown) [Compound 4, Thiopentanyl-Discorhabdin C Adduct]
GI50 ([4]; Homo sapiens, read-out: GI50 (50% growth inhibition)): 1400 nM | CC50 ([4]; Homo sapiens, read-out: LC50 (50% cell kill)): 10500 nM | TGI (total growth inhibition) ([4]; averaged calculated mean over panel, two experiments at the NCI): 3900 nM

O=C1C2=C(C3=NCCc4c[nH]c1c43)C1(C=C(Br)C(O)C(Br)=C1)CCN2 (stereo not shown) [Compound 9, 3-dihydrodiscorhabdin C]
IC50 [5]: 110 nM | IC50 [6]: 170 nM | IC50 (Pf W2 clone): 130 nM | IC50 ([2]; mean of duplicate assays, read-out: P. Falc. K1 IC50): 400 nM | IC50 (Vero cell line): 9800 nM

O=C1C(Br)=CC2(C=C1Br)CCNC1=C2C2=NCCc3cn(C4C5[N+]6=C7C8=C(NCCC84C(O)C(Br)C5(O)O)C(=O)c4[nH]cc(c47)CC6)c(c32)C1=O (stereo not shown) [Compound 8]
IC50 (L6 cytotoxicity assay): 2100 nM | IC50 (Trypanosoma cruzi; Trypanosoma cruzi): 11100 nM | SI Pf, antiplasmodial selectivity index = L6 IC50/P f. IC50 [2]: 0.3 | IC50 [2, 12]: 6400 nM | activity towards Trypanosoma brucei rhodesiense (in words) [3]: sub-micromolar | IC50 [3, 13]: 710 nM | IC50 (Leishmania donovani; Leishmania donovani): 18700 nM

O=C1C2=C3C4=[N+](CCc5c[nH]c1c54)[C@@H]1C(=O)C=C4S[C@@H](C[C@@]43C1O)N2 (stereo partly shown) [Compound 14]
IC50 (L6 cytotoxicity assay): 11000 nM | inhibition at 12 µM (Trypanosoma cruzi; [9]): 9% | inhibition at 1.9 µM [2, 10]: 20% | IC50 [3, 14]: 1300 nM | inhibition at 1.9 µM (Leishmania donovani; [11]): 20%

O=C1C2=C(C3=NCCc4c[nH]c1c43)c1c(cc(Br)c(O)c1Br)CCN2 [Compound 17]
IC50 (L6 cytotoxicity assay): 41000 nM | inhibition at 0.8 µM (Trypanosoma cruzi; Trypanosoma cruzi, at 0.8 μM, read-out: T. Cruzi % inhibition): 0% | IC50 [7]: 560 nM | SI Pf, antiplasmodial selectivity index = L6 IC50/P f. IC50 [2]: 510 | IC50 [2, 12]: 80 nM | activity towards Trypanosoma brucei rhodesiense (in words) [3]: sub-micromolar | IC50 [3, 13]: 330 nM | inhibition at 0.8 µM (Leishmania donovani; Leishmania donovani, at 0.8 μM, read-out: L. Don. % inhibition): 29% | IC50 [8]: 160 nM

O=C(Cn1ccnc1[N+](=O)[O-])NCc1ccccc1 [benznidazole, reference compound]
IC50 (Trypanosoma cruzi; Trypanosoma cruzi): 1350 nM

Nc1nc(N)nc(Nc2ccc([As]3SCC(CO)S3)cc2)n1 (stereo not shown) [melarsoprol, reference compound]
IC50 [3, 14]: 10 nM

CCCCCCCCCCCCCCCCOP(=O)([O-])OCC[N+](C)(C)C [miltefosine, reference compound]
IC50 (Leishmania donovani; Leishmania donovani): 520 nM

CCN(CC)CCCC(C)Nc1ccnc2cc(Cl)ccc12 (stereo not shown) [chloroquine, reference compound]
IC50 [2, 12]: 200 nM
